Data: patent US20090023762A1, “Substituted 2-Aminopyrimidine-4-Ones, Their Pharmaceutical Compositions And Their Use In The Treatment And/Or Prevention Of Ab-Related Pathologies” (ASTRAZENECA AB, priority 2005, published 2009)

Molecular target: T1, human β-Secretase (Homo sapiens, UniProt P56817)
T1 construct: The soluble part of the human β-Secretase (AA 1-AA 460) was cloned; Fc domain of IgG1 (C); made in house
Test: TR-FRET assay
Format: biochemical
Details: substrate (Europium)CEVNLDAEFK(Qsy7) 100 nM, enzyme 0.3 nM, pH 4.5
Description: The enzyme used in the IGEN Cleavage-, Fluorescent-, TR-FRET- and the BiaCore assay is described as follows:
The soluble part of the human β-Secretase (AA 1-AA 460) was cloned into the ASP2-Fc10-1-IRES-GFP-neoK mammalian expression vector. The gene was fused to the Fc domain of IgG1 (affinity tag) and stably cloned into HEK 293 cells. Purified sBACE-Fc is stored in Tris buffer, pH 9.2 and has a purity of 95%.
Dilute the enzyme (truncated form) to 6 μg/mL (stock 1.3 mg/mL) and the substrate (Europium)CEVNLDAEFK (Qsy7) to 200 nM (stock 60 μM) in reaction buffer (NaAcetate, chaps, triton x-100, EDTA pH4.5). The Biomek FX is used for all liquid handling and the enzyme and substrate solutions are kept on ice until they are placed in Biomek FX. Enzyme (9 μl) is added to the plate then […] in dimethylsulphoxide is added, mixed and pre-incubated for 10 minutes. Substrate (10 μl) is then added, mixed and the reaction proceeds in the dark for 15 minutes at room temperature. The reaction is stopped with the addition of Stop solution (7 μl, NaAcetate pH 9). The fluorescence of the product is measured on a Victor II plate reader with an excitation wavelength of 340 nm and an emission wavelength of 615 nm. The assay is done in a Costar 384 well round bottom, low volume, non-binding surface (Corning #3676). […]

T1 sequence (P56817 22-460): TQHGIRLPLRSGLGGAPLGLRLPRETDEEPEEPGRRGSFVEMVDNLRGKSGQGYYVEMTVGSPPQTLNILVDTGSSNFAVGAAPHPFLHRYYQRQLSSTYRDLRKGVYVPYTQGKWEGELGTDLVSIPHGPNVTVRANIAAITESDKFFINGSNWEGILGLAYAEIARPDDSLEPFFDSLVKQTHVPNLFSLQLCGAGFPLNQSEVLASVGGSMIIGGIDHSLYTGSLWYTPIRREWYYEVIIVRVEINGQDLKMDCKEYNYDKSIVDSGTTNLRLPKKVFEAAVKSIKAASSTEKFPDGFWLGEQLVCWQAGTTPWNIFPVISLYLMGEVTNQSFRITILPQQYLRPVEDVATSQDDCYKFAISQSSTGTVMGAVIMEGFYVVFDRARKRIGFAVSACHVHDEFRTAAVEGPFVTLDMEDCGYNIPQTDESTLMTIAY

- IC50: 703 nM
Compound: COc1cc(OS(C)(=O)=O)cc(-c2cccc(C3(C)CC(=O)N(C)C(N)=N3)c2)c1 (stereo not shown) [Example 9, 3′-(2-Amino-1,4-dimethyl-6-oxo-1,4,5,6-tetrahydropyrimidin-4-yl)-5-methoxybiphenyl-3-yl methanesulfonate]
